This note sets out measurements from ChEMBL document CHEMBL5291721, “A preclinical secondary pharmacology resource illuminates target-adverse drug reaction associations of marketed drugs” (Nat Commun, 2023).

Molecules are shown by their SMILES.

The target in assay [1] is T1, Cannabinoid receptor 1 (Homo sapiens, UniProt P21554). Type of assay: functional, cell-based.
Assay [2] has as its target Vascular endothelial growth factor receptor 2 (Homo sapiens, UniProt P35968). Format: functional.
Assay [3] has as its target Histamine H3 receptor (Homo sapiens, UniProt Q9Y5N1).
For assay [4], the target named is T2, Alpha-1A adrenergic receptor (Homo sapiens, UniProt P35348).
T2 sequence (P35348 whole entry): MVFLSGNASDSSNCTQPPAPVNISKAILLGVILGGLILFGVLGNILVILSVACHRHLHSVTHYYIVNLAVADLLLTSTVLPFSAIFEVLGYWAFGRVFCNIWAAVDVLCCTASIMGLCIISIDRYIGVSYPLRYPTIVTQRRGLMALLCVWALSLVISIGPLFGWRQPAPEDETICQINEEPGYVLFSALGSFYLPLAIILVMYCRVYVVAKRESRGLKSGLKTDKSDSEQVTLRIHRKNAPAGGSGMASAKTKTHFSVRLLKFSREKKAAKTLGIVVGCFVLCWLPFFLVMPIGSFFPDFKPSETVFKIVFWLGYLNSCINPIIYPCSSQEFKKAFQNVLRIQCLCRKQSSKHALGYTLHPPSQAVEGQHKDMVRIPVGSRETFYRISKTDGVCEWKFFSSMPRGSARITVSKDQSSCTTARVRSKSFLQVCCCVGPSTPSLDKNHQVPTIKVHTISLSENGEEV

Assay [5] has as its target T1, Cannabinoid receptor 1.
Assay [6] has as its target Prostaglandin G/H synthase 1 (Homo sapiens, UniProt P23219). Format: functional.
Assay [7] concerns the target T3, Androgen receptor (Homo sapiens, UniProt P10275).
T3 sequence (P10275 whole entry): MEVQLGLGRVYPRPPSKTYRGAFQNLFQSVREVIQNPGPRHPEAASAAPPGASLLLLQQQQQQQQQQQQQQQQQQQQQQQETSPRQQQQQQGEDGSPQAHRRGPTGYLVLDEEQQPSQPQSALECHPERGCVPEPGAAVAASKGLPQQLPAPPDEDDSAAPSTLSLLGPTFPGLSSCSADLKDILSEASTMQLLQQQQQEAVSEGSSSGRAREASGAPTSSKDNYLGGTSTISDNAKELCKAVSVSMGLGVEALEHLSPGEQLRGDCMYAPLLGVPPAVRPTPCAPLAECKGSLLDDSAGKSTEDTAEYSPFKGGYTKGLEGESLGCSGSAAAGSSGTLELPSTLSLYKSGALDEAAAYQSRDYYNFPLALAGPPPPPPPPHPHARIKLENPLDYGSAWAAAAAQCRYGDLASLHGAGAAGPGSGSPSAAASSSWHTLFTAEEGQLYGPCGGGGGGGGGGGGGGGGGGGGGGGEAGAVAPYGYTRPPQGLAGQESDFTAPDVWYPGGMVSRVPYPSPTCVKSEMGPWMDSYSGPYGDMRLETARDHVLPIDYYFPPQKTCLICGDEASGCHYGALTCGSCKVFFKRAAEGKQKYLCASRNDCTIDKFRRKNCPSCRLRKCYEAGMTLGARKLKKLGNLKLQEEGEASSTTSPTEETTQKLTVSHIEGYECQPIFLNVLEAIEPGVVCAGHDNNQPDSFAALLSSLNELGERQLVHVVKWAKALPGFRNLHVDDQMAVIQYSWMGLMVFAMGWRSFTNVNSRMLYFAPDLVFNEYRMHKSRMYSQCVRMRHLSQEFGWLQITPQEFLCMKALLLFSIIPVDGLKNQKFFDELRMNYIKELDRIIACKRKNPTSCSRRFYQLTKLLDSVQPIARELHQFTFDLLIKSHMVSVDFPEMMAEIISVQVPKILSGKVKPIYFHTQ

The target of assay [8] is Sodium-dependent noradrenaline transporter (Homo sapiens, UniProt P23975).
Sodium-dependent noradrenaline transporter, sequence (P23975 whole entry): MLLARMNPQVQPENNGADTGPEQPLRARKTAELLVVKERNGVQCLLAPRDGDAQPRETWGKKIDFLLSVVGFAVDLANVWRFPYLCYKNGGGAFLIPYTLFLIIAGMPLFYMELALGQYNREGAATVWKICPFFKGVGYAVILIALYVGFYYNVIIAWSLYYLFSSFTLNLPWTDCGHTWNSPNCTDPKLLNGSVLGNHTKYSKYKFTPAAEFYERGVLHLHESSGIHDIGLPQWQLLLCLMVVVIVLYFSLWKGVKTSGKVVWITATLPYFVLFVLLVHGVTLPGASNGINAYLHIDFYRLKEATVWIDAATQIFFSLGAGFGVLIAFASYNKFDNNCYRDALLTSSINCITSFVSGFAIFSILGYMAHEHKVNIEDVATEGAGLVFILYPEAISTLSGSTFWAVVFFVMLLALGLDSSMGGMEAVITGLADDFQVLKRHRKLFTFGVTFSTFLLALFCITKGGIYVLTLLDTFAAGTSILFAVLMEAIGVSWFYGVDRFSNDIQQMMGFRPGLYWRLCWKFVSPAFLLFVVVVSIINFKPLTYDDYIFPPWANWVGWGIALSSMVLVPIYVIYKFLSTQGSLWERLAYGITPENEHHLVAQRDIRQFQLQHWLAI
The target of assay [9] is T4, Adenosine receptor A1 (Homo sapiens, UniProt P30542).
T4 sequence (P30542 whole entry): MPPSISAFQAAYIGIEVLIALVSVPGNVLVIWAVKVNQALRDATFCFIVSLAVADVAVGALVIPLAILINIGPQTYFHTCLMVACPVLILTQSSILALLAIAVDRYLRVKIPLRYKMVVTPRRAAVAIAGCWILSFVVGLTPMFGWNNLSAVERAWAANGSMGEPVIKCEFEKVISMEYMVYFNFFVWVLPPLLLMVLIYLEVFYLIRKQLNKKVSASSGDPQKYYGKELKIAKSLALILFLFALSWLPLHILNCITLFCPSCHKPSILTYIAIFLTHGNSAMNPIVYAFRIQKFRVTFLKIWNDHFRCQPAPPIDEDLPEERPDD
Also: assay procedure not described here.

Histamine H3 receptor, sequence (Q9Y5N1 whole entry): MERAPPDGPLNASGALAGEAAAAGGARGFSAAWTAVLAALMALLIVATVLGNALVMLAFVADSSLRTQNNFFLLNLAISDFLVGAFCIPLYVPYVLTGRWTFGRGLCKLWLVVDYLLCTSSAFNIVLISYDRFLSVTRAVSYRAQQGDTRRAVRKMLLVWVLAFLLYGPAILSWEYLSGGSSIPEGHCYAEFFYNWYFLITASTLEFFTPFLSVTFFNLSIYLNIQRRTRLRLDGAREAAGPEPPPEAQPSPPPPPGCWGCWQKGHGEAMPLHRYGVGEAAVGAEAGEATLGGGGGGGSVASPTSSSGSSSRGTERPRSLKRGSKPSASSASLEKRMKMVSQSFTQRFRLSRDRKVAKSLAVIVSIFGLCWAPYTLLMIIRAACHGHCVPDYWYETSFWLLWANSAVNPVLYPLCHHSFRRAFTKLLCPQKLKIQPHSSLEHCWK
T1 sequence (P21554 whole entry): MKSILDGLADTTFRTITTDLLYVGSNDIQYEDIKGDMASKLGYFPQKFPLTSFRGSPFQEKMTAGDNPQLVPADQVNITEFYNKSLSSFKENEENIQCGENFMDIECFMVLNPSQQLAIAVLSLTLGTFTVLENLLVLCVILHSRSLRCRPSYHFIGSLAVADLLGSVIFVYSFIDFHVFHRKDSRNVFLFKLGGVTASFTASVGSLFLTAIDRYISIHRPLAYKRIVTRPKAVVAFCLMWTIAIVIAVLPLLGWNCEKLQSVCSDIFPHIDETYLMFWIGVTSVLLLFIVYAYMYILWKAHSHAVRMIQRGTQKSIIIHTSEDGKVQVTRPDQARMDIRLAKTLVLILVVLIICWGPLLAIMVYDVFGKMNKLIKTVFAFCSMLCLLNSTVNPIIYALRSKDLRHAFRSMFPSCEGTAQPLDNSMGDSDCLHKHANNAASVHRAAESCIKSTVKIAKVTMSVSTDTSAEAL
Vascular endothelial growth factor receptor 2, sequence (P35968 whole entry): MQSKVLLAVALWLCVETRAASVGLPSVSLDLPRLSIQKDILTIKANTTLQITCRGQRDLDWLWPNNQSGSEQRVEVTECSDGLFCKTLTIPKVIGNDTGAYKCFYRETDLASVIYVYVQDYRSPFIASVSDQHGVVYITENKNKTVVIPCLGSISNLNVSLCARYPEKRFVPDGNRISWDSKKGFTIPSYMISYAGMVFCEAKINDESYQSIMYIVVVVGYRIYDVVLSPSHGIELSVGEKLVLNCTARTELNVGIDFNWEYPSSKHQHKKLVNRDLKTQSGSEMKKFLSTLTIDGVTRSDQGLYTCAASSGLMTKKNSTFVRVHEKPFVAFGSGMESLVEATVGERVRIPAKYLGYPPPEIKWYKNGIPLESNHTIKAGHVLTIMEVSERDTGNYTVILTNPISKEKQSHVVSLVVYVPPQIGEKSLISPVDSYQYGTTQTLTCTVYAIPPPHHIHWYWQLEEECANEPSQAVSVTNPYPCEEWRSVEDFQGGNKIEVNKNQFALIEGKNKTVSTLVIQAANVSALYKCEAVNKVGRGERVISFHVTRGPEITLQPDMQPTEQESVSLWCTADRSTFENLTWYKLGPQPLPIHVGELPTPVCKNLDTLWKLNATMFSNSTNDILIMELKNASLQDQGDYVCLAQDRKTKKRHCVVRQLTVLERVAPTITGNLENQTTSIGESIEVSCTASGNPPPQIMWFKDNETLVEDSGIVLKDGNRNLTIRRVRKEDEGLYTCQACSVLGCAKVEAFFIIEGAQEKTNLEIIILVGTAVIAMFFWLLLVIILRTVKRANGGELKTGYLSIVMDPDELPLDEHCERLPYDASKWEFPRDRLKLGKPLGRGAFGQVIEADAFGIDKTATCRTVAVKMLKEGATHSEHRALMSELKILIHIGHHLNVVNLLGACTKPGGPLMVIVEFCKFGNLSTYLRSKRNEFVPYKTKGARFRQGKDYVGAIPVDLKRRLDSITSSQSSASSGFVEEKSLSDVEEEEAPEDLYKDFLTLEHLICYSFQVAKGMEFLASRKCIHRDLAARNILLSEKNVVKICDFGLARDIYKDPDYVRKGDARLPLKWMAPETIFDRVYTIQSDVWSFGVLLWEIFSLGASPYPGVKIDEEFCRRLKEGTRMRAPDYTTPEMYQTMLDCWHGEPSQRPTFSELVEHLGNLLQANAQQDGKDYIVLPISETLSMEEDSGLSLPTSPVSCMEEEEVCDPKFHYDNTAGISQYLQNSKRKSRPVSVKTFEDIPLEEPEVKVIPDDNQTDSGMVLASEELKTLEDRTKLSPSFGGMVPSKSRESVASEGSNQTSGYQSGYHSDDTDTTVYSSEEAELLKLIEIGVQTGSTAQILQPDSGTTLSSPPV
Prostaglandin G/H synthase 1, sequence (P23219 whole entry): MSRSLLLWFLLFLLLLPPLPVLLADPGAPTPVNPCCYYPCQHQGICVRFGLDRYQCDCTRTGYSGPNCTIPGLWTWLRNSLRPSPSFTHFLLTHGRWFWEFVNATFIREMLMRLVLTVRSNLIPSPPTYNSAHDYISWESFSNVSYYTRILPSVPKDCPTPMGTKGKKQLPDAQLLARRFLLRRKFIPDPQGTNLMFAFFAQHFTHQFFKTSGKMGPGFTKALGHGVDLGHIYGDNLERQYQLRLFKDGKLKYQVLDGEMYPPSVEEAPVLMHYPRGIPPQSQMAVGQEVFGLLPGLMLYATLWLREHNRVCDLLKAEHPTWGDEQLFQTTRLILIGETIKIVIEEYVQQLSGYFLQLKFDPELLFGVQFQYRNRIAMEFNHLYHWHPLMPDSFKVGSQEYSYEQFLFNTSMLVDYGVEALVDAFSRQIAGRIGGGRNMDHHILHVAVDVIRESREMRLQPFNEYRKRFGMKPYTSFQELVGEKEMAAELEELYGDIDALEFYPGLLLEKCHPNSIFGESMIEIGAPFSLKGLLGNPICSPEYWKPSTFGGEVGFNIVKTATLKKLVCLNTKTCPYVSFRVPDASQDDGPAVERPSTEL

What is called AC50 is the midpoint of the concentration-response curve, whichever way the signal moves. A lower AC50 goes with activity at low concentration. In the case of `C[C@@H](O)[C@H]1C(=O)N2C(C(=O)O)=C(SCCN=CN)C[C@H]12` [IMIPENEM ANHYDROUS], the half-maximal activity concentration (AC50) was above 300 µM in assay [1], above 300 µM in assay [2] and 180 µM in assay [3].

For `CN1CC2c3ccccc3Oc3ccc(Cl)cc3C2C1` (centres undefined) [ASENAPINE], the AC50 in assay [1], in [2] and in [3] was above 30 µM each time.

For `c1cnc2cc3c(cc2n1)[C@@H]1CNC[C@H]3C1` [VARENICLINE], the half-maximal activity concentration (AC50) in assay [1], in assay [2] and in [3] was above 30 µM throughout.

In the case of `Cn1cnc2c(F)c(Nc3ccc(Br)cc3F)c(C(=O)NOCCO)cc21` [BINIMETINIB], the AC50 in assay [1], in [2] and in assay [3] was above 30 µM throughout.

With `CN(C)CCC=C1c2ccccc2CCc2ccccc21` [AMITRIPTYLINE], the AC50 in assay [4] was 0.0299 µM; in assay [1] it was above 30 µM; in assay [5], above 10 µM; in assay [6], above 30 µM; in assay [2], above 30 µM; in assay [3], 24 µM.

`CC(=O)Oc1ccccc1C(=O)O` [ASPIRIN]: the AC50 in [4] is above 10 µM; in assay [7] it was above 30 µM; in assay [1], above 30 µM; in assay [5], above 10 µM; in [8] it was above 30 µM; in assay [2], above 30 µM. Also, the half-maximal activity concentration (AC50) in assay [3] is above 30 µM.

With `C[C@H](Nc1ncnc2[nH]cnc12)c1cc2cccc(Cl)c2c(=O)n1-c1ccccc1` [DUVELISIB], the half-maximal activity concentration (AC50) in [9], in [7], in assay [1], in assay [6], in assay [8] and in assay [2] was above 30 µM throughout. The AC50 in [3] is above 30 µM.

`O=C1[C@@H]2[C@H]3CC[C@H](C3)[C@@H]2C(=O)N1C[C@@H]1CCCC[C@H]1CN1CCN(c2nsc3ccccc23)CC1` [LURASIDONE]: the half-maximal activity concentration (AC50) in assay [7] was above 30 µM; in assay [1] it was above 30 µM; in assay [6], above 30 µM; in [8] it was 24.1 µM; in [2] it was above 30 µM; in assay [3], above 30 µM.

`Nc1c2c(nc3ccccc13)CCCC2O` (centres undefined) [VELNACRINE]: the AC50 in [1], in [2] and in assay [3] was above 30 µM each time.

Consider `NCC1(CC(=O)O)CCCCC1` [GABAPENTIN], for which the half-maximal activity concentration (AC50) in assay [4] was above 10 µM; in assay [1], above 30 µM; in assay [5], above 10 µM; in assay [6], above 30 µM; in [8] it was above 30 µM; in assay [2], above 30 µM. Also, the AC50 in [3] was above 30 µM.

On to `CCC[C@@]1(CCc2ccccc2)CC(O)=C([C@H](CC)c2cccc(NS(=O)(=O)c3ccc(C(F)(F)F)cn3)c2)C(=O)O1`, for which the AC50 in [1], in assay [2] and in assay [3] was above 30 µM in each case.

Take `C[C@H](CCC(=O)O)[C@H]1CC[C@H]2[C@@H]3[C@H](O)C[C@@H]4C[C@H](O)CC[C@]4(C)[C@H]3CC[C@]12C` [CHENODIOL]: the half-maximal activity concentration (AC50) in assay [1] is above 30 µM; in assay [2], above 3 µM; in [3] it was above 30 µM.
